Reference: US10947196B2, “Beta adrenergic agonist and methods of using the same” (CURASEN THERAPEUTICS, INC., priority 2019, dated 2021)

target: B3-AR (Homo sapiens (Human), UniProt P13945); test: cAMP potency assay, B3-AR expressing CHO-K1 cells; type: cell-based; details: not given
Sequence (P13945 whole entry, species assumed): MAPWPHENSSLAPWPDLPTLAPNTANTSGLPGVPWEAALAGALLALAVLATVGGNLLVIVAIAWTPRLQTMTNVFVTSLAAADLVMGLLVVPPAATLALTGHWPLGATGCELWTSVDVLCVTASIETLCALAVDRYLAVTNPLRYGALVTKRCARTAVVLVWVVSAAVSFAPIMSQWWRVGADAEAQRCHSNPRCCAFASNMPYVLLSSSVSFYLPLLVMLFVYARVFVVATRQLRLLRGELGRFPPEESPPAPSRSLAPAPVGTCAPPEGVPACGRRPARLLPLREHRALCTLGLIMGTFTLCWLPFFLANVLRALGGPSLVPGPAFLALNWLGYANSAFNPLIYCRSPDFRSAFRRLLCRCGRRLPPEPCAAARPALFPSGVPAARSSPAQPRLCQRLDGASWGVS

SMILES | Average pEC50 [Receptor subtype: B3-AR; Cell type: CHO-K1]
CC(C)NC[C@H](O)c1cccc(C2CC2)n1 [Compound 03-10] | D (D < 6)

same assay, conditions: read-out: Average EC50 [Receptor subtype: B3-AR, Cell type: CHO-K1]

SMILES | EC50 [nM]
CC(C)NC[C@H](O)c1cccc(C2CC2)n1 [Compound 03-10] | > 1000
CC(C)(C)NC[C@H](O)c1cncc(C(F)(F)F)n1 [Compound 03-38] | > 1000

same assay, conditions: read-out: Average pEC50 [Receptor subtype: B3-AR, Cell type: CHO-K1] (converted)

SMILES | EC50 [nM]
CC(C)Oc1cccc([C@@H](O)CNC(C)(C)C)n1 [Compound 03-179] | 100 to 1000
Cc1cc([C@@H](O)CNC(C)(C)C)nc(C(F)(F)F)c1 [Compound 03-19] | > 1000
COc1ccc(CC(C)(C)NC[C@H](O)c2cccc(C(F)(F)F)n2)cc1 [Compound 03-182] | 100 to 1000
CC(C)(C)NC[C@H](O)c1cncc(C(F)(F)F)n1 [Compound 03-38] | > 1000

target: β2 adrenergic receptors in human astrocytoma cells (1321N1) (Homo sapiens (Human), UniProt P07550); test: cAMP HTRF assay in human astrocytoma cells (1321N1); type: cell-based; details: Endogenous receptor; 1321N1 cells
Sequence (P07550 whole entry): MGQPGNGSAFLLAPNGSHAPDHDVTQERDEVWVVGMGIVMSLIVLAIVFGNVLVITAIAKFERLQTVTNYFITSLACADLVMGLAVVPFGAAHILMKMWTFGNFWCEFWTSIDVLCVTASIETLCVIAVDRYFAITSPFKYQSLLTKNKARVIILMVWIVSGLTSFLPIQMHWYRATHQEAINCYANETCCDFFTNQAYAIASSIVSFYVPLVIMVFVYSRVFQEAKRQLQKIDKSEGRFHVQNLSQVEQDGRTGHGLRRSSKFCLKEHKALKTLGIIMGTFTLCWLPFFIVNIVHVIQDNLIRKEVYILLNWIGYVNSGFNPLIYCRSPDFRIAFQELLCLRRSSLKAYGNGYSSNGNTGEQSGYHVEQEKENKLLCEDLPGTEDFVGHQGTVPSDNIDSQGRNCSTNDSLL
Experimental: cAMP homogeneous time-resolved fluorescence (HTRF). Compound efficacy was determined using the cAMP Gs dynamic HTRF assay (Cisbio, catalog #62AM4PEC) largely following the manufacturer's instructions, also detailed below.
Compound preparation. […] Standard serial dilution curves were 10-point, 5-fold dilutions starting from a highest concentration of 10 μM. […] Assay plates were centrifuged at 500×g for 10 seconds. Compounds and IBMX were prepared at 2× final dose to compensate for addition of cells.
Cell preparation. 1× stimulation buffer, washing PBS (Dulbecco's phosphate-buffered saline, −Mg −Ca; Caisson Labs, catalog #PBL01), assay PBS (Dulbecco's phosphate-buffered saline, +Mg, +Ca; Caisson Labs, catalog #PBL02) and Versene (0.02% EDTA disodium salt solution in PBS without calcium or magnesium; Caisson Labs, catalog #EDL01) were pre-warmed to 37° C. Cells expressing beta-adrenergic receptor were washed in washing PBS to remove growth medium and then released from the surface by incubating with Versene for 5-10 minutes at 37° C. Cells were harvested using assay PBS, counted manually by hemocytometer or by an automated cell counter, pelleted by centrifugation (200×g, 5 minutes) and resuspended in 37° C. 1× stimulation buffer to a final density of 1.5×10^6 cells/mL. 5 μL of the suspended cell solution (7500 cell total) were added to all wells of the 384 well assay plate, the assay plate was covered with an Axygen® plate seal (Corning PCR-SP) and incubated in a humidified 37° C. environment supplemented with 5% CO2 for 30 minutes.
HTRF reagent addition, reading and data analysis. After 30 minutes of cell stimulation with test compound, the assay plates were centrifuged at 500×g for 10 seconds, and incubation was stopped with the addition of 5 μL cAMP-D2 acceptor, diluted 1:21 in detection and lysis buffer 2 (Cisbio 62CL2FDF) was added to all cells. Subsequently, 5 μL Anti-cAMP-Eu Donor, diluted 1:21 in detection and lysis buffer 2, was added to cells. Plates were sealed and reactions gently ‘vortexed’ at 900 rpm on a Heidolph Titramax 1000 for at least 30 minutes at room temperature. Plates were centrifuged again at 500×g for 10 seconds, and HTRF was measured using a Tecan Spark plate reader at 50 flashes per well. […] Potency estimates (EC50) were derived from the four-parameter nonlinear regression of the concentration-effect curve and an estimate of relative efficacy was determined by comparing the magnitude of the test compound HTRF signal window (min−max dose) with the signal window of the full agonist control, isoproterenol.

SMILES | Average pEC50 [Receptor subtype: Endogenous; Cell type: 1321N1]
CC(C)NC[C@H](O)c1cccc(C2CC2)n1 [Compound 03-10] | B (B = 8-7)
CC(C)(C)NC[C@H](O)c1cncc(C(F)(F)F)n1 [Compound 03-38] | C (C = <7-6)

same assay, conditions: Endogenous receptor; 1321N1 cells; read-out: Average EC50 [Receptor subtype: Endogenous; Cell type: 1321N1]

SMILES | EC50 [nM]
CC(C)NC[C@H](O)c1cccc(C2CC2)n1 [Compound 03-10] | 10 to 100
CC(C)(C)NC[C@H](O)c1cncc(C(F)(F)F)n1 [Compound 03-38] | 100 to 1000

same assay, conditions: Endogenous receptor; 1321N1 cells; read-out: Average pEC50 [Receptor subtype: Endogenous; Cell type: 1321N1] (converted)

SMILES | EC50 [nM]
CC(C)Oc1cccc([C@@H](O)CNC(C)(C)C)n1 [Compound 03-179] | < 10
Cc1cc([C@@H](O)CNC(C)(C)C)nc(C(F)(F)F)c1 [Compound 03-19] | 100 to 1000
COc1ccc(CC(C)(C)NC[C@H](O)c2cccc(C(F)(F)F)n2)cc1 [Compound 03-182] | < 10

target: β1-adrenergic receptor (Homo sapiens (Human), UniProt P08588); test: cAMP Gs dynamic HTRF assay, β1 expressing CHO cells; type: cell-based; details: B1-AR; CHO-K1 (HitHunter)
Sequence (P08588 whole entry, species assumed): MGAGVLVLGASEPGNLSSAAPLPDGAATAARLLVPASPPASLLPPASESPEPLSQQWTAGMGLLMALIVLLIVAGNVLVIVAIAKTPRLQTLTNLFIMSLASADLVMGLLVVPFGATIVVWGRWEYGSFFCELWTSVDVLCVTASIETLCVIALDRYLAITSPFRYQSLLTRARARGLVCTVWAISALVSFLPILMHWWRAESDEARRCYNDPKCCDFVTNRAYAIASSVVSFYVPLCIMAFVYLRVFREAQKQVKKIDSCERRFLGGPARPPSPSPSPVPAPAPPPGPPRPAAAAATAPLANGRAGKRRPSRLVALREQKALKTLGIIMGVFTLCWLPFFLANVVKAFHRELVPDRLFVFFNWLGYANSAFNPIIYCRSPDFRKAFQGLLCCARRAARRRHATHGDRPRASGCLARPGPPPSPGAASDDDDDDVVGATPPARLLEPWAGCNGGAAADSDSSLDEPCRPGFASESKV
Method in brief: (§1)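 Intracellular cAMP quantified by Eu-donor/d2-acceptor HTRF after 30 min compound exposure at 37° C in stimulation buffer with IBMX. Concentrations ran 10 μM top, 5-fold steps, 10 points. Cell lines: 1321N1 astrocytoma and CHO expressing β1 or β2; EC50 via four-parameter fit, relative efficacy against isoproterenol.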

SMILES | Average pEC50 [Receptor subtype: B1-AR; Cell type: CHO-K1 (HitHunter)]
CC(C)Oc1cccc([C@@H](O)CNC(C)(C)C)n1 [Compound 03-179] | C (C = <7-6)
CC(C)(C)NC[C@H](O)c1cncc(C(F)(F)F)n1 [Compound 03-38] | C (C = <7-6)

same assay, conditions: B1-AR; CHO-K1 (HitHunter); read-out: Average pEC50 [Receptor subtype: B1-AR; Cell type: CHO-K1 (HitHunter)] (converted)

SMILES | EC50 [nM]
CC(C)NC[C@H](O)c1cccc(C2CC2)n1 [Compound 03-10] | 10 to 100
Cc1cc([C@@H](O)CNC(C)(C)C)nc(C(F)(F)F)c1 [Compound 03-19] | 100 to 1000
COc1ccc(CC(C)(C)NC[C@H](O)c2cccc(C(F)(F)F)n2)cc1 [Compound 03-182] | 10 to 100

same assay, conditions: B1-AR; CHO-K cells; read-out: Average EC50 [Receptor subtype: B1-AR; Cell type: CHO-K]

SMILES | EC50 [nM]
CC(C)NC[C@H](O)c1cccc(C2CC2)n1 [Compound 03-10] | 10 to 100
CC(C)Oc1cccc([C@@H](O)CNC(C)(C)C)n1 [Compound 03-179] | 100 to 1000
Cc1cc([C@@H](O)CNC(C)(C)C)nc(C(F)(F)F)c1 [Compound 03-19] | 100 to 1000
COc1ccc(CC(C)(C)NC[C@H](O)c2cccc(C(F)(F)F)n2)cc1 [Compound 03-182] | 10 to 100
CC(C)(C)NC[C@H](O)c1cncc(C(F)(F)F)n1 [Compound 03-38] | 100 to 1000

target: β2 adrenergic receptor (Homo sapiens (Human), UniProt P07550); test: cAMP Gs dynamic HTRF assay, β2 expressing CHO cells; type: cell-based; details: B2-AR; CHO-K1 (HitHunter); read-out: Average pEC50 [Receptor subtype: B2-AR; Cell type: CHO-K1 (HitHunter)] (converted)
Sequence (P07550 whole entry, species assumed): as the sequence (P07550 whole entry) above
Method in brief: as §1

SMILES | EC50 [nM]
CC(C)NC[C@H](O)c1cccc(C2CC2)n1 [Compound 03-10] | < 10
CC(C)Oc1cccc([C@@H](O)CNC(C)(C)C)n1 [Compound 03-179] | < 10
Cc1cc([C@@H](O)CNC(C)(C)C)nc(C(F)(F)F)c1 [Compound 03-19] | 10 to 100
COc1ccc(CC(C)(C)NC[C@H](O)c2cccc(C(F)(F)F)n2)cc1 [Compound 03-182] | < 10
CC(C)(C)NC[C@H](O)c1cncc(C(F)(F)F)n1 [Compound 03-38] | 10 to 100

same assay, conditions: B2-AR; CHO-K cells; read-out: Average EC50 [Receptor subtype: B2-AR; Cell type: CHO-K]

SMILES | EC50 [nM]
CC(C)NC[C@H](O)c1cccc(C2CC2)n1 [Compound 03-10] | < 10
CC(C)Oc1cccc([C@@H](O)CNC(C)(C)C)n1 [Compound 03-179] | < 10
Cc1cc([C@@H](O)CNC(C)(C)C)nc(C(F)(F)F)c1 [Compound 03-19] | 10 to 100
COc1ccc(CC(C)(C)NC[C@H](O)c2cccc(C(F)(F)F)n2)cc1 [Compound 03-182] | < 10
CC(C)(C)NC[C@H](O)c1cncc(C(F)(F)F)n1 [Compound 03-38] | 10 to 100
